In the experiment the target is T1, selenophosphate synthetase (SPS) (Escherichia coli, UniProt P16456, E197D).
T1 construct: gene selD; full-size selD from E. coli BL21-Gold (DE3), recombinant
The experiment can be described thus: competitive displacement of TNP-ATP (fluorescence). The format is binding.

T1 sequence (P16456 whole entry E197D): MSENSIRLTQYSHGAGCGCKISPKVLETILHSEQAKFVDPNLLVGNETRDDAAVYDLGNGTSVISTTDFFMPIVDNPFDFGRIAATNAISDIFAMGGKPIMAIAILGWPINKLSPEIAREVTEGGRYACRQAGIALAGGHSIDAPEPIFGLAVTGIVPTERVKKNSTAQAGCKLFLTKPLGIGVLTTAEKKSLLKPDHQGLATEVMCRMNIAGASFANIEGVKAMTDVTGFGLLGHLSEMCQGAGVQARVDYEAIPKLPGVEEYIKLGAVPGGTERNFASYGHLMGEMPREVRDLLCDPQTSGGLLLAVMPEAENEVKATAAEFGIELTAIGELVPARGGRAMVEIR

`Nc1ncnc2c1ncn2[C@@H]1O[C@H](COP(=O)(O)OP(=O)(O)OP(=O)(O)O)[C@@H](O)[C@H]1O` [ATP]: the midpoint of the response, the EC50, lay at 450 µM.
